Test results reported in patent US20140155397A1, “EMT SIGNATURES AND PREDICTIVE MARKERS AND METHOD OF USING THE SAME” (Board of Regents, priority 2011, published 2014).
Where two headings read alike, the source gives them in different places.

Key:
NSCLC cell lines = assay: Drug sensitivity (growth inhibition, MTS assay) of epithelial versus mesenchymal NSCLC cell lines; format: cell-based
From the text: (§1) Average values were used for analysis as described. […] Chou T. C., et al., Quantitative Analysis of Dose-Effect Relationships: The Combined Effects of Multiple Drugs or Enzyme Inhibitors. Adv Enzyme Regul.
The EMT signature was derived in 54 DNA fingerprinted NSCLC cell lines profiled on Affymetrix U133A, B, and Plus2.0 arrays and tested on the Illumina WGv2 and WGv3 platforms and in an independent set of head and neck cancer lines (HNC). E-cadherin and other protein levels were quantified by reverse phase protein array and correlated with the first principal component of the EMT signature. IC50s were determined for NSCLC cell lines by MTS assay. Response to erlotinib was evaluated in patients treated in the BATTLE clinical trial using eight-week disease […] and progression free survival.

A549 = assay: Proliferation, CellTiter-Glo Luminescent Cell Viability; format: cell-based; conditions: Homo sapiens, single agent
From the text: as §1

Calu-1 = assay: as above; format: cell-based; conditions: Homo sapiens, single agent
From the text: as §1

H1299 = assay: as above; format: cell-based; conditions: Homo sapiens, NCI-H1299, single agent
From the text: as §1

H157 = assay: as above; format: cell-based; conditions: Homo sapiens, NCI-H157, single agent
From the text: as §1

H2882 = assay: as above; format: cell-based; conditions: NCI-H2882, single agent
From the text: as §1

H460 = assay: as above; format: cell-based; conditions: Homo sapiens, NCI-H460, single agent
From the text: as §1

[1] = tested on: Cells expressing high levels of Axl; assay: Proliferation of six mesenchymal cell lines expressing high levels of Axl (summary); format: cell-based; conditions: single agent
From the text: as §1

NSCLC patients = assay: BATTLE clinical trial, 8-week disease control and progression-free survival; format: in vivo, human
From the text: BATTLE (Biomarker-integrated Approaches of Targeted Therapy for Lung Cancer Elimination) was a randomized, biomarker-based clinical trial for patients with recurrent or metastatic NSCLC in the second-line setting (Trial registration ID: NCT00409968). Kim E. S. H. R., The BATTLE Trial: Personalizing Therapy for Lung Cancer, Cancer Discovery 1:43-51 (2011). mRNA from tumors obtained via core-needle biopsy at enrollment were profiled on Human Gene 1.0 ST array, Affymetrix. Array results were deposited in the GEO repository (GSE33072).
We used pretreatment gene expression profiles (Affymetrix […]) from 101 chemo-refractory patients in our Biomarkers-Integrated Approaches of Targeted Therapy for Lung Cancer Elimination (BATTLE) treated with E, E+bexarotene (EB), sorafenib (S), or vandetanib (V). 24 cases of with EGFR & KRAS tumors treated with E or EB were compared to train the signature (two-sided t-test), using the primary end-point of the trial[8-week disease control (8 with DC)]. Principal component (PC) analysis and a logistic regression model were used to develop the signature. Gene expression profiles from 108 NSCLC cell lines (Illumina), with available E IC50 (N=94) and DNA methylation profiling (N=66, Illumina), were used for in vitro studies.

NC1(c2ccc(-c3nc4ccn5c(=O)[nH]nc5c4cc3-c3ccccc3)cc2)CCC1 [MK2206]
Fold higher mean IC50 in mesenchymal versus epithelial cell lines (NSCLC cell lines; all NSCLC cell lines): 1.5 fold

CS(=O)(=O)N1CCN(Cc2cc3nc(-c4cccc5[nH]ncc45)nc(N4CCOCC4)c3s2)CC1 [GDC0941]
Fold higher mean IC50 in mesenchymal versus epithelial cell lines (NSCLC cell lines; all NSCLC cell lines): 1.9 fold

C#Cc1cccc(Nc2ncnc3cc(OCCOC)c(OCCOC)cc23)c1 [Erlotinib, erlotinib]
Sensitivity of mesenchymal cells (NSCLC cell lines; SGI-7079 versus erlotinib, p<0.001 by Wilcoxon test): uniformly resistant | Fold higher mean IC50 in mesenchymal versus epithelial cell lines (NSCLC cell lines; all NSCLC cell lines): 3.7 fold | Fold higher mean IC50 in mesenchymal versus epithelial cell lines (NSCLC cell lines; subset with wild-type EGFR and wild-type KRAS): 2 fold | IC50 (A549): 13.5 µM | IC50 (Calu-1): > 100 µM | IC50 (H1299): > 100 µM | IC50 (H157): 48.5 µM | IC50 (H2882): > 100 µM | IC50 (H460): > 100 µM | IC50 ([1]; read-out: IC50 range across cell lines): ≥ 13.5 µM | IC50 ([1]; read-out: Mean IC50 across cell lines): 77 µM | 8-week DC rate (NSCLC patients; 5-gene signature-negative group): 0% | 8-week DC rate (NSCLC patients; 5-gene signature-positive group): 83% | Median PFS (NSCLC patients; signature-negative group): 7.2 weeks | Median PFS (NSCLC patients; signature-positive group): 12.5 weeks | Progression-free survival hazard ratio (NSCLC patients; signature-positive versus signature-negative group, 95% CI 0.03-0.46): 0.12 | Patients with 8-week disease control (DC) (NSCLC patients; wildtype EGFR and KRAS patients with mesenchymal signatures): 1/5

Nc1ncnc2c1nc(N)n2[C@@H]1O[C@H](CO)[C@@H](O)[C@H]1O [8-amino-adenosine]
Fold higher mean IC50 in mesenchymal versus epithelial cell lines (NSCLC cell lines; all NSCLC cell lines): 1.7 fold

CNC(=O)c1cc(Oc2ccc(NC(=O)Nc3ccc(Cl)c(C(F)(F)F)c3)cc2)ccn1 [sorafenib]
Fold higher mean IC50 in mesenchymal versus epithelial cell lines (NSCLC cell lines; all NSCLC cell lines): not more resistant
